Experimental data published in patent publication US10745382B2 (BRISTOL-MYERS SQUIBB COMPANY, priority 2015, dated 2020).

Target: T1, PD-1/PD-L1 (Homo sapiens, UniProt Q9NZQ7)
T1 construct: made in house; host or cells: HEK293T
Assay: PD-1/PD-L1 Homogenous Time-Resolved Fluorescence (HTRF) binding assay
Conditions: PD-L1-His 10 nM, PD-1-Ig 20 nM; numeric IC50; read-out: Range or IC50
Outline: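 Compounds are tested for blocking the PD-1/PD-L1 interaction in dPBS supplemented with 0.1% BSA and 0.05% (v/v) Tween-20. Tagged proteins are detected with Eu-cryptate anti-Ig and APC anti-His at 1 and 20 nM final.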

T1 sequence (Q9NZQ7 with tags, fused parts or gaps): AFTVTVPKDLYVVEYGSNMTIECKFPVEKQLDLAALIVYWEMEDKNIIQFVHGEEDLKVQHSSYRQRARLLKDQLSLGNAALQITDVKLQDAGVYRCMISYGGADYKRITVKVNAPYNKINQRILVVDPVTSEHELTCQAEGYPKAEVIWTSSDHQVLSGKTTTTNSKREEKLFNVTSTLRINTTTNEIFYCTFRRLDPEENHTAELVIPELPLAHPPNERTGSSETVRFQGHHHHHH

SMILES | IC50 [nM]
Cc1c(COc2cc(OCc3cncc(C#N)c3)c(CN3CCCC[C@H]3C(=O)O)cc2Cl)cccc1-c1cccc(OCCCN2CCC(CO)(C(=O)O)C2)c1Cl (stereo partly drawn) [Example 1106, (2S)-1-(4-((3′-(3-(3-carboxy-3-(hydroxymethyl)pyrrolidin-1-yl)propoxy)-2′-chloro-2-methyl-[1,1′-biphenyl]-3-yl)methoxy)-5-chloro-2-((5-cyanopyridin-3-yl)methoxy)benzyl)piperidine-2-carboxylic Acid] | 1

Same assay, conditions: PD-L1-His 10 nM, PD-1-Ig 20 nM; value given as range class; read-out: Range or IC50

SMILES | IC50 [nM]
Cc1c(COc2cc(OCc3cncc(C#N)c3)c(CN3CCCC[C@H]3C(=O)O)cc2Cl)cccc1-c1cccc(OCCCNC[C@H](O)C(=O)O)c1C [Example 2242, (2S)-1-(4-((3′-(3-((S)-2-carboxy-2-hydroxyethylamino)propoxy)-2,2′-dimethylbiphenyl-3-yl)methoxy)-5-chloro-2-((5-cyanopyridin-3-yl)methoxy)benzyl)piperidine-2-carboxylic Acid] | 0.21 to 10
Cc1cc(COc2cc(OCc3cncc(C#N)c3)c(CN[C@](C)(CO)C(=O)O)cc2Cl)c(C)c(-c2cccc(OCCCN3CC[C@@H](O)C3)c2C)c1 [Example 3026, (R)-2-((5-chloro-2-((5-cyanopyridin-3-yl)methoxy)-4-((3′-(3-((R)-3-hydroxypyrrolidin-1-yl)propoxy)-2,2′,5-trimethyl-[1,1′-biphenyl]-3-yl)methoxy)benzyl)amino)-3-hydroxy-2-methylpropanoic Acid, 2TFA] | 0.21 to 10
COC(=O)C1(O)CCN(CCCOc2cccc(-c3cccc(COc4cc(OCc5cncc(S(C)(=O)=O)c5)c(CN[C@@](C)(CO)C(=O)O)cc4Cl)c3C)c2C)CC1 [Example 1039, (S)-2-((5-chloro-4-((3′-(3-(4-hydroxy-4-(methoxycarbonyl)piperidin-1-yl)propoxy)-2,2′-dimethyl-[1,1′-biphenyl]-3-yl)methoxy)-2-((5-(methylsulfonyl)pyridin-3-yl)methoxy)benzyl)amino)-3-hydroxy-2-methylpropanoic Acid] | 0.21 to 10
Cc1c(COc2cc(OCc3cc(Cl)cc(Cl)c3)c(CNC(CO)CO)cc2Cl)cccc1-c1cccc(OCCCN2CC[C@@H](O)C2)c1C [Example 4501, (R)-2-((5-chloro-2-((3,5-dichlorobenzyl)oxy)-4-((3′-(3-(3-hydroxypyrrolidin-1-yl)propoxy)-2,2′-dimethyl-[1,1′-biphenyl]-3-yl)methoxy)benzyl)amino)propane-1,3-diol] | 0.21 to 10
COc1cc(OCc2cccc(-c3cccc(OCCCN4CC[C@@H](O)C4)c3C)c2C)c(Cl)cc1CN[C@@H](CO)C(=O)O [Example 3035, (2S)-2-((5-chloro-4-((3′-(3-((R)-3-hydroxypyrrolidin-1-yl)propoxy)-2,2′-dimethyl-[1,1′-biphenyl]-3-yl)methoxy)-2-methoxybenzyl)amino)-3-hydroxypropanoic Acid] | 0.21 to 10
CC(CO)(CO)NCc1cc(Cl)c(OCc2cccc(-c3cccc(OCCCN4CC[C@@H](O)C4)c3Cl)c2Cl)cc1OCc1cc(C#N)ccc1F [Example 2055, (R)-3-((4-chloro-5-((2,2′-dichloro-3′-(3-(3-hydroxypyrrolidin-1-yl)propoxy)-[1,1′-biphenyl]-3-yl)methoxy)-2-(((1,3-dihydroxy-2-methylpropan-2-yl)amino)methyl)phenoxy)methyl)-4-fluorobenzonitrile] | 0.21 to 10
Cc1c(COc2cc(OCc3cncc(C#N)c3)c(CN3CCCC[C@H]3C(=O)O)cc2Cl)cccc1-c1cccc(OCCCN2CCC[C@H](O)C2)c1 [Example 1019, (S)-1-(5-chloro-2-((5-cyanopyridin-3-yl)methoxy)-4-((3′-(3-((S)-3-hydroxypiperidin-1-yl)propoxy)-2-methyl-[1,1′-biphenyl]-3-yl)methoxy)benzyl)piperidine-2-carboxylic Acid] | 0.21 to 10
Cc1c(COc2cc(OCc3cncc(C#N)c3)c(CN3CCCC[C@H]3C(=O)O)cc2Cl)cccc1-c1cccc(OCCC(=O)N2CC[C@@H](O)C2)c1 [Example 1011, (S)-1-(5-chloro-2-((5-cyanopyridin-3-yl)methoxy)-4-((3′-(3-((R)-3-hydroxypyrrolidin-1-yl)-3-oxopropoxy)-2-methyl-[1,1′-biphenyl]-3-yl)methoxy)benzyl)piperidine-2-carboxylic Acid] | 100 to 2000
Cc1c(COc2cc(OCc3cncc(C#N)c3)c(C(C)N(C)C(CO)CO)cc2Cl)cccc1-c1cccc(OCCCN2CC[C@@H](O)C2)c1C (stereo partly drawn) [Example 4140, 5-((4-chloro-2-(1-((1,3-dihydroxypropan-2-yl)(methyl)amino)ethyl)-5-((3′-(3-((R)-3-hydroxypyrrolidin-1-yl)propoxy)-2,2′-dimethyl-[1,1′-biphenyl]-3-yl)methoxy)phenoxy)methyl)nicotinonitrile] | 0.21 to 10
Cc1c(COc2cc(OCc3cncc(C#N)c3)c(CN3CCCC[C@H]3C(=O)O)cc2Cl)cccc1-c1cccc(OCCCN2CCC[C@H](C(=O)O)C2)c1C [Example 2204, (2S)-1-(4-((3′-(3-((S)-3-carboxypiperidin-1-yl)propoxy)-2,2′-dimethylbiphenyl-3-yl)methoxy)-5-chloro-2-((5-cyanopyridin-3-yl)methoxy)benzyl)piperidine-2-carboxylic Acid] | 0.21 to 10
Cc1c(COc2cc(OCc3cncc(C#N)c3)c(CN3CCOC[C@H]3CO)cc2Cl)cccc1-c1cccc(OCCCN2CC[C@@H](O)C2)c1Cl [Example 2115, 5-((4-chloro-5-((2′-chloro-3′-(3-((R)-3-hydroxypyrrolidin-1-yl)propoxy)-2-methyl-[1,1′-biphenyl]-3-yl)methoxy)-2-(((R)-3-(hydroxymethyl)morpholino)methyl)phenoxy)methyl)nicotinonitrile] | 0.21 to 10
Cc1ccc(COc2cc(OCc3cccc(-c4cccc(OCCCN5CC[C@@H](O)C5)c4C)c3C)c(Cl)cc2CNC(CO)(CO)CO)cc1C [Example 4507, (R)-2-((5-chloro-2-((3,4-dimethylbenzyl)oxy)-4-((3′-(3-(3-hydroxypyrrolidin-1-yl)propoxy)-2,2′-dimethyl-[1,1′-biphenyl]-3-yl)methoxy)benzyl)amino)-2-(hydroxymethyl)propane-1,3-diol] | 0.21 to 10
Cc1c(COc2cc(OCc3cncc(C#N)c3)c(CN3CCC[C@H]3C(=O)O)cc2Cl)cccc1-c1cccc(C(=O)N(C)C)c1C [Example 4031, (5-chloro-2-((5-cyanopyridin-3-yl)methoxy)-4-((3′-(dimethylcarbamoyl)-2,2′-dimethyl-[1,1′-biphenyl]-3-yl)methoxy)benzyl)-L-proline] | 2010 to 10000
Cc1c(COc2cc(OCc3cncc(C#N)c3)c(CN3CCCC[C@H]3C(=O)O)cc2Cl)cccc1-c1cccc(C(=O)N2CCN(C)CC2)c1C [Example 3059, (S)-1-(5-chloro-2-((5-cyanopyridin-3-yl)methoxy)-4-((2,2′-dimethyl-3′-(4-methylpiperazine-1-carbonyl)-[1,1′-biphenyl]-3-yl)methoxy)benzyl)piperidine-2-carboxylic Acid] | 100 to 2000
Cc1c(COc2cc(OCc3cncc(C#N)c3)c(CN[C@](C)(CO)C(=O)O)cc2Cl)cccc1-c1cccc(OCCCN2CCC(O)C2)c1C (stereo in doubt) [Example 3005, (R)-2-((5-chloro-2-((5-cyanopyridin-3-yl)methoxy)-4-((3′-(3-((R)-3-hydroxypyrrolidin-1-yl)propoxy)-2,2′-dimethyl-[1,1′-biphenyl]-3-yl)methoxy)benzyl)amino)-3-hydroxy-2-methylpropanoic Acid] | 0.21 to 10
CC(=O)NC1CCN(CCCOc2cccc(-c3cccc(COc4cc(OCc5cncc(C#N)c5)c(CN(CCC(F)(F)F)C(CO)CO)cc4Cl)c3C)c2Cl)CC1 [Example 2073, N-(1-(3-((2-chloro-3′-((2-chloro-5-((5-cyanopyridin-3-yl)methoxy)-4-(((1,3-dihydroxypropan-2-yl)(3,3,3-trifluoropropyl)amino)methyl)phenoxy)methyl)-2′-methyl-[1,1′-biphenyl]-3-yl)oxy)propyl)piperidin-4-yl)acetamide] | 0.21 to 10
Cc1c(COc2cc(OCc3cncc(C#N)c3)c(CN[C@](C)(CO)C(=O)O)cc2Cl)cccc1-c1cccc(OCC2(CN3CC[C@@H](O)C3)CC2)c1C [Example 2341, (R)-2-((5-chloro-2-((5-cyanopyridin-3-yl)methoxy)-4-((3′-((1-(((R)-3-hydroxypyrrolidin-1-yl)methyl)cyclopropyl)methoxy)-2,2′-dimethyl-[1,1′-biphenyl]-3-yl)methoxy)benzyl)amino)-3-hydroxy-2-methylpropanoic Acid] | 0.21 to 10
Cc1c(COc2cc(OCc3cncc(S(C)(=O)=O)c3)c(CN3CCCC[C@H]3C(=O)O)cc2Cl)cccc1-c1cccc(OCCCN2CC[C@@H](O)C2)c1Cl [Example 1513, (S)-1-(5-chloro-4-((2′-chloro-3′-(3-((R)-3-hydroxypyrrolidin-1-yl)propoxy)-2-methyl-[1,1′-biphenyl]-3-yl)methoxy)-2-((5-(methylsulfonyl)pyridin-3-yl)methoxy)benzyl)piperidine-2-carboxylic acid] | 10 to 100
Cc1c(COc2cc(OCc3cncc(S(C)(=O)=O)c3)c(CN[C@](C)(CO)C(=O)O)cc2Cl)cccc1-c1cccc(OCCCN2CC(O)C(C(=O)O)C2)c1C (stereo partly drawn) [Example 1075, 1-(3-((3′-((4-((((R)-2-carboxy-1-hydroxypropan-2-yl)amino)methyl)-2-chloro-5-((5-(methylsulfonyl)pyridin-3-yl)methoxy)phenoxy)methyl)-2,2′-dimethyl-[1,1′-biphenyl]-3-yl)oxy)propyl)-4-hydroxypyrrolidine-3-carboxylic Acid] | 0.21 to 10
Cc1c(COc2cc(OCc3cncc(C#N)c3)c(CNC(C)(CO)CO)cc2Cl)cccc1-c1cccc(OCC(O)CO)c1Cl (stereo not drawn) [Example 2082, 5-((4-chloro-5-((2′-chloro-3′-(2,3-dihydroxypropoxy)-2-methyl-[1,1′-biphenyl]-3-yl)methoxy)-2-(((1,3-dihydroxy-2-methylpropan-2-yl)amino)methyl)phenoxy)methyl)nicotinonitrile] | 0.21 to 10
